Source: patent US20120308570A1, “METHODS FOR TREATING DISEASES” (priority 2009, published 2012)

What was measured:
[1] = target: T1, SSB-2/elongin BC complex ubiquitination of iNOS (Mus musculus, UniProt O88838); experiment: Cell-free ubiquitination assay of iNOS; type: biochemical; settings: excess free iNOS peptide; 10 and 40 min incubation
T1 sequence (O88838 1-264): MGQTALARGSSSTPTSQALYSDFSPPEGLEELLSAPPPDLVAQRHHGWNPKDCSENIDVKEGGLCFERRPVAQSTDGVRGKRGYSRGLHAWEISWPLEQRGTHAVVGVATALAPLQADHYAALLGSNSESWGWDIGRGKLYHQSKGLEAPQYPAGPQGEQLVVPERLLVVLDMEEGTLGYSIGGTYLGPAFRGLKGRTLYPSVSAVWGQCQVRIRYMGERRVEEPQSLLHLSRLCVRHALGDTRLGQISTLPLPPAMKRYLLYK
Procedure: Ubiquitination assays were performed in 20 μl in 20 mM Tris-HCl, 50 mM NaCl, 5 mM MgCl2, 2.5 mM ATP, 0.1 mM DTT. Reactions were stopped by the addition of 2×SDS PAGE loading buffer and heating at 95° C. for 5 min. Reactions contained 0.1 μM E1, 2.5 μM E2, 2.5 μM E3, 50 μM ubiquitin and 5 μM SSB-2/elonginBC and were incubated for 30 minutes or as indicated at 37° C. Cell lysate was added as substrate. Results were visualised by Western Blot using anti iNOS monoclonal antibody following SDS-PAGE.
SOCS box proteins recruit an E3 ubiquitin ligase complex which in the presence of E1 and […] enzymes polyubiquitinates interacting proteins, targeting them for proteasomal degradation. […] LPS/IFNγ stimulated macrophage lysates were used as a source of iNOS and incubated with ubiquitin and a trimeric SSB-2/elongin BC complex, in the presence of E1 and E2 enzymes, Rbx 1 and Cullin5. The reaction mixtures were then analysed by SDS-PAGE and Western blot with anti-iNOS antibodies. Enhanced. polyubiquitination of iNOS, as evidenced by higher molecular weight smearing, was observed after 10 and 40 min incubation in the presence of the SSB2/elongin BC complex.

[2] = target: T2, Y120A-SSB-2ΔSB (Mus musculus, UniProt O88838, Y120A); experiment: ITC of Y120A mutant SSB-2 SPRY domain with iNOS peptide; type: binding; settings: versus SSB-2ΔSB
T2 construct: tyrosine 120 had been mutated to alanine (Y120A-SSB-2ΔSB; a.a.12-224); GST (N, cleaved yes); made in house; host or cells: E. coli (bacterially expressed)
T2 sequence (O88838 12-224 Y120A): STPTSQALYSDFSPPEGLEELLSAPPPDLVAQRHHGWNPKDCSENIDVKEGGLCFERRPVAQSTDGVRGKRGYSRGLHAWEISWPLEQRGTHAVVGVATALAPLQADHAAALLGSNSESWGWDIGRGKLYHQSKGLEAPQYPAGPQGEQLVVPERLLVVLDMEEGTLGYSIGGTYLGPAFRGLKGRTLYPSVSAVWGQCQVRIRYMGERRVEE
Procedure: Wild-type and mutant iNOS peptides (Table 2), corresponding to Lys19-Thr31 of mouse iNOS, were synthesized by GL Biochem (Shanghai) Ltd. These peptides were N-terminal acetylated and C-terminal amidated. All ITC measurements were carried out at 25° C. using a Microcal omega VP-ITC (Microcal Inc., Northampton, Mass.). SSB-2ΔSB was dialysed against buffer (100 mM TrisHCl, 150 mM NaCl, pH 8.0), and wild-type and mutant iNOS N-terminal peptides were prepared in the same buffer from 5 mM stocks. Solutions of 5 to 10 μM SSB-2ΔSB in the cell were titrated by injection of a total of 290 μL of 50-200 μM of iNOS peptides. Data analysis was performed using the evaluation software, MicroCal Origin version 5.0. All curves were fitted using the nonlinear least-squares fitter and the “One Set of Sites” model.
Additional conserved residues flanking the DINNN (SEQ ID NO:36) sequence (Lys22, Val28 and Lys30) also contribute to the interaction, as alanine substitutions of these residues had 2- to 4-fold lower SSB-2 binding affinities than the wild-type peptide. […] Mutation of Glu21 had no effect on SSB-2:iNOS peptide binding. […] Binding of an SSB-2-SPRY domain in which tyrosine 120 had. been mutated to alanine (Y120A-SSB-2ΔSB) was assessed by ITC. The iNOS peptide bound Y120A-SSB-2ΔSB with ˜5000-fold reduced affinity, evidence that Tyr120 in SSB-2 is critical for binding to the iNOS peptide (Table 2).

Substance: Ac-KEEKDINNNVKKT-NH2 [I, Ac-KEEKDINNNVKKT-NH2]
- inhibition of polyubiquitination of iNOS [1]: completely inhibited
- fold reduced affinity for Y120A-SSB-2ΔSB [2]: ~5000 fold
